Results as given in patent publication US20260232767A1, “INTERLEUKIN-23 RECEPTOR ANTAGONIST PEPTIDES FOR USE IN THE TREATMENT OF PSORIASIS” (Janssen Pharmaceutica NV, priority 2023, published 2026).

System: subjects with moderate-to-severe plaque psoriasis
Test: Hematology and chemistry laboratory values by CTCAE grade
Format: in vivo, human
Conditions: through Week 56
Text: The proportion of participants who discontinued study intervention due to one or more AEs was low (n=4). All events were singular in nature with no apparent dose-dependent increase (Table 48 and Table 52). The number of participants with abnormal hematology and chemistry laboratory values with CTCAE toxicity grade≥3 were low through the end of the study (Table 43 through Table 46). There was no apparent dose-dependent increase in laboratory abnormality occurrences.

[1] = Placebo → 100 mg QD after crossover

Compound: CC(=O)NCCCC[C@@H]1NC(=O)[C@H](Cc2c[nH]c3c(C)cccc23)NC(=O)[C@H]([C@@H](C)O)NC(=O)[C@H](CC(N)=O)NC(=O)[C@@H](NC(C)=O)C(C)(C)SSC(C)(C)[C@@H](C(=O)N[C@@H](Cc2ccc(OCCN)cc2)C(=O)N[C@@H](Cc2ccc3ccccc3c2)C(=O)NC2(C(=O)N[C@@H](CCC(=O)O)C(=O)N[C@@H](CC(N)=O)C(=O)N[C@@H](Cc3cccnc3)C(=O)N(C)CC(N)=O)CCOCC2)NC1=O [IL-23 receptor antagonist peptide, Ac-[Pen]*-N-T-[W(7-Me)]-[Lys(Ac)]-[Pen]*-Phe[4-(2-aminoethoxy)]-[2-Nal]-[THP]-E-N-[3-Pal]-Sarc-NH2 (*[Pen]-[Pen]* formdisulfidebond)]
- WBC (×10^9/L) (increased): subjects with Grade 2 (100 mg QD): 0
- WBC (×10^9/L) (increased): subjects with Grade 3 (100 mg QD): 0
- WBC (×10^9/L) (increased): subjects with Grade 4 (100 mg QD): 0
- WBC (×10^9/L) (increased): subjects with postbaseline maximum toxicity grade >0 (100 mg QD): 0
- Hemoglobin (g/L) (decreased): subjects with Grade 3 (Combined Formula (I) regimens): 0
- Hemoglobin (g/L) (decreased): subjects with Grade 4 (Combined Formula (I) regimens): 0
- Hemoglobin (g/L) (increased): subjects with Grade 2 (Combined Formula (I) regimens): 0
- Hemoglobin (g/L) (increased): subjects with Grade 3 (Combined Formula (I) regimens): 0
- Hemoglobin (g/L) (increased): subjects with Grade 4 (Combined Formula (I) regimens): 0
- Lymphocytes (×10^9/L) (decreased): subjects with Grade 3 (Combined Formula (I) regimens): 0
- Lymphocytes (×10^9/L) (decreased): subjects with Grade 4 (Combined Formula (I) regimens): 0
- Lymphocytes (×10^9/L) (increased): subjects with Grade 1 (Combined Formula (I) regimens): 0
- Lymphocytes (×10^9/L) (increased): subjects with Grade 3 (Combined Formula (I) regimens): 0
- Lymphocytes (×10^9/L) (increased): subjects with Grade 4 (Combined Formula (I) regimens): 0
- Neutrophils (×10^9/L) (decreased): subjects with Grade 3 (Combined Formula (I) regimens): 0
- Neutrophils (×10^9/L) (decreased): subjects with Grade 4 (Combined Formula (I) regimens): 0
- Platelets (×10^9/L) (decreased): subjects with Grade 2 (Combined Formula (I) regimens): 0
- Platelets (×10^9/L) (decreased): subjects with Grade 3 (Combined Formula (I) regimens): 0
- Platelets (×10^9/L) (decreased): subjects with Grade 4 (Combined Formula (I) regimens): 0
- WBC (×10^9/L) (decreased): subjects with Grade 3 (Combined Formula (I) regimens): 0
- WBC (×10^9/L) (decreased): subjects with Grade 4 (Combined Formula (I) regimens): 0
- WBC (×10^9/L) (increased): subjects with Grade 1 (Combined Formula (I) regimens): 0
- WBC (×10^9/L) (increased): subjects with Grade 2 (Combined Formula (I) regimens): 0
- WBC (×10^9/L) (increased): subjects with Grade 3 (Combined Formula (I) regimens): 0
- WBC (×10^9/L) (increased): subjects with Grade 4 (Combined Formula (I) regimens): 0
- WBC (×10^9/L) (increased): subjects with postbaseline maximum toxicity grade >0 (Combined Formula (I) regimens): 0
- Alanine Aminotransferase (increased): Subjects with Grade 4 (Combined): 0
- Albumin (decreased): Subjects with Grade 1 (Combined): 0
- Albumin (decreased): Subjects with Grade 2 (Combined): 0
- Albumin (decreased): Subjects with Grade 3 (Combined): 0
- Albumin (decreased): Subjects with Grade 4 (Combined): 0
- Albumin (decreased): Subjects with postbaseline maximum toxicity grade >0 (Combined): 0
- Alkaline Phosphatase (increased): Subjects with Grade 2 (Combined): 0
- Alkaline Phosphatase (increased): Subjects with Grade 3 (Combined): 0
- Alkaline Phosphatase (increased): Subjects with Grade 4 (Combined): 0
- Aspartate Aminotransferase (increased): Subjects with Grade 4 (Combined): 0
- Calcium corrected (decreased): Subjects with Grade 3 (Combined): 0
- Calcium corrected (decreased): Subjects with Grade 4 (Combined): 0
- Calcium corrected (increased): Subjects with Grade 2 (Combined): 0
- Calcium corrected (increased): Subjects with Grade 3 (Combined): 0
- Calcium corrected (increased): Subjects with Grade 4 (Combined): 0
- Cholesterol (increased): Subjects with Grade 3 (Combined): 0
- Cholesterol (increased): Subjects with Grade 4 (Combined): 0
- Creatinine (increased): Subjects with Grade 3 (Combined): 0
- Creatinine (increased): Subjects with Grade 4 (Combined): 0
- Gamma Glutamyl Transferase (increased): Subjects with Grade 3 (Combined): 0
- Gamma Glutamyl Transferase (increased): Subjects with Grade 4 (Combined): 0
- Glucose (decreased): Subjects with Grade 3 (Combined): 0
- Glucose (decreased): Subjects with Grade 4 (Combined): 0
- Magnesium (decreased): Subjects with Grade 2 (Combined): 0
- Magnesium (decreased): Subjects with Grade 3 (Combined): 0
- Magnesium (decreased): Subjects with Grade 4 (Combined): 0
- Magnesium (increased): Subjects with Grade 2 (Combined): 0
- Magnesium (increased): Subjects with Grade 3 (Combined): 0
- Magnesium (increased): Subjects with Grade 4 (Combined): 0
- Potassium (decreased): Subjects with Grade 1 (Combined): 0
- Potassium (decreased): Subjects with Grade 3 (Combined): 0
- Potassium (decreased): Subjects with Grade 4 (Combined): 0
- Potassium (increased): Subjects with Grade 4 (Combined): 0
- Sodium (decreased): Subjects with Grade 2 (Combined): 0
- Sodium (decreased): Subjects with Grade 3 (Combined): 0
- Sodium (decreased): Subjects with Grade 4 (Combined): 0
- Sodium (increased): Subjects with Grade 2 (Combined): 0
- Sodium (increased): Subjects with Grade 3 (Combined): 0
- Sodium (increased): Subjects with Grade 4 (Combined): 0
- Total Bilirubin (increased): Subjects with Grade 3 (Combined): 0
- Total Bilirubin (increased): Subjects with Grade 4 (Combined): 0
- Hemoglobin (g/L) (decreased): subjects with Grade 2 [1]: 0
- Hemoglobin (g/L) (decreased): subjects with Grade 3 [1]: 0
- Hemoglobin (g/L) (decreased): subjects with Grade 4 [1]: 0
- Hemoglobin (g/L) (increased): subjects with Grade 2 [1]: 0
- Hemoglobin (g/L) (increased): subjects with Grade 3 [1]: 0
- Hemoglobin (g/L) (increased): subjects with Grade 4 [1]: 0
- Lymphocytes (×10^9/L) (decreased): subjects with Grade 1 [1]: 0
- Lymphocytes (×10^9/L) (decreased): subjects with Grade 3 [1]: 0
- Lymphocytes (×10^9/L) (decreased): subjects with Grade 4 [1]: 0
- Lymphocytes (×10^9/L) (increased): subjects with Grade 1 [1]: 0
- Lymphocytes (×10^9/L) (increased): subjects with Grade 2 [1]: 0
- Lymphocytes (×10^9/L) (increased): subjects with Grade 3 [1]: 0
- Lymphocytes (×10^9/L) (increased): subjects with Grade 4 [1]: 0
- Lymphocytes (×10^9/L) (increased): subjects with postbaseline maximum toxicity grade >0 [1]: 0
- Platelets (×10^9/L) (decreased): subjects with Grade 2 [1]: 0
- Platelets (×10^9/L) (decreased): subjects with Grade 3 [1]: 0
- Platelets (×10^9/L) (decreased): subjects with Grade 4 [1]: 0
- WBC (×10^9/L) (decreased): subjects with Grade 2 [1]: 0
- WBC (×10^9/L) (decreased): subjects with Grade 3 [1]: 0
- WBC (×10^9/L) (decreased): subjects with Grade 4 [1]: 0
- WBC (×10^9/L) (increased): subjects with Grade 1 [1]: 0
- WBC (×10^9/L) (increased): subjects with Grade 2 [1]: 0
- WBC (×10^9/L) (increased): subjects with Grade 3 [1]: 0
- WBC (×10^9/L) (increased): subjects with Grade 4 [1]: 0
- WBC (×10^9/L) (increased): subjects with postbaseline maximum toxicity grade >0 [1]: 0
- Alanine Aminotransferase (increased): Subjects with Grade 1 (Placebo → 100 mg QD): 10
- Alanine Aminotransferase (increased): Subjects with Grade 3 (Placebo → 100 mg QD): 0
- Alanine Aminotransferase (increased): Subjects with Grade 4 (Placebo → 100 mg QD): 0
- Albumin (decreased): Subjects with Grade 1 (Placebo → 100 mg QD): 0
- Albumin (decreased): Subjects with Grade 2 (Placebo → 100 mg QD): 0
- Albumin (decreased): Subjects with Grade 3 (Placebo → 100 mg QD): 0
- Albumin (decreased): Subjects with Grade 4 (Placebo → 100 mg QD): 0
- Albumin (decreased): Subjects with postbaseline maximum toxicity grade >0 (Placebo → 100 mg QD): 0
- Alkaline Phosphatase (increased): Subjects with Grade 2 (Placebo → 100 mg QD): 0
- Alkaline Phosphatase (increased): Subjects with Grade 3 (Placebo → 100 mg QD): 0
- Alkaline Phosphatase (increased): Subjects with Grade 4 (Placebo → 100 mg QD): 0
- Aspartate Aminotransferase (increased): Subjects with Grade 4 (Placebo → 100 mg QD): 0
- Aspartate Aminotransferase (increased): Subjects with postbaseline maximum toxicity grade >0 (Placebo → 100 mg QD): 9
- Calcium corrected (decreased): Subjects with Grade 3 (Placebo → 100 mg QD): 0
- Calcium corrected (decreased): Subjects with Grade 4 (Placebo → 100 mg QD): 0
- Calcium corrected (increased): Subjects with Grade 1 (Placebo → 100 mg QD): 0
- Calcium corrected (increased): Subjects with Grade 2 (Placebo → 100 mg QD): 0
- Calcium corrected (increased): Subjects with Grade 3 (Placebo → 100 mg QD): 0
- Calcium corrected (increased): Subjects with Grade 4 (Placebo → 100 mg QD): 0
- Calcium corrected (increased): Subjects with postbaseline maximum toxicity grade >0 (Placebo → 100 mg QD): 0
- Cholesterol (increased): Subjects with Grade 1 (Placebo → 100 mg QD): 0
- Cholesterol (increased): Subjects with Grade 2 (Placebo → 100 mg QD): 0
- Cholesterol (increased): Subjects with Grade 3 (Placebo → 100 mg QD): 0
- Cholesterol (increased): Subjects with Grade 4 (Placebo → 100 mg QD): 0
- Cholesterol (increased): Subjects with postbaseline maximum toxicity grade >0 (Placebo → 100 mg QD): 0
- Creatine Kinase (increased): Subjects with Grade 2 (Placebo → 100 mg QD): 0
- Creatine Kinase (increased): Subjects with Grade 4 (Placebo → 100 mg QD): 0
- Creatinine (increased): Subjects with Grade 2 (Placebo → 100 mg QD): 0
- Creatinine (increased): Subjects with Grade 3 (Placebo → 100 mg QD): 0
- Creatinine (increased): Subjects with Grade 4 (Placebo → 100 mg QD): 0
- Gamma Glutamyl Transferase (increased): Subjects with Grade 3 (Placebo → 100 mg QD): 0
- Gamma Glutamyl Transferase (increased): Subjects with Grade 4 (Placebo → 100 mg QD): 0
- Glucose (decreased): Subjects with Grade 3 (Placebo → 100 mg QD): 0
- Glucose (decreased): Subjects with Grade 4 (Placebo → 100 mg QD): 0
- Magnesium (decreased): Subjects with Grade 2 (Placebo → 100 mg QD): 0
- Magnesium (decreased): Subjects with Grade 3 (Placebo → 100 mg QD): 0
- Magnesium (decreased): Subjects with Grade 4 (Placebo → 100 mg QD): 0
- Magnesium (increased): Subjects with Grade 2 (Placebo → 100 mg QD): 0
- Magnesium (increased): Subjects with Grade 3 (Placebo → 100 mg QD): 0
- Magnesium (increased): Subjects with Grade 4 (Placebo → 100 mg QD): 0
- Potassium (decreased): Subjects with Grade 1 (Placebo → 100 mg QD): 0
- Potassium (decreased): Subjects with Grade 3 (Placebo → 100 mg QD): 0
- Potassium (decreased): Subjects with Grade 4 (Placebo → 100 mg QD): 0
- Potassium (increased): Subjects with Grade 3 (Placebo → 100 mg QD): 0
- Potassium (increased): Subjects with Grade 4 (Placebo → 100 mg QD): 0
- Sodium (decreased): Subjects with Grade 1 (Placebo → 100 mg QD): 0
- Sodium (decreased): Subjects with Grade 2 (Placebo → 100 mg QD): 0
- Sodium (decreased): Subjects with Grade 3 (Placebo → 100 mg QD): 0
- Sodium (decreased): Subjects with Grade 4 (Placebo → 100 mg QD): 0
- Sodium (decreased): Subjects with postbaseline maximum toxicity grade >0 (Placebo → 100 mg QD): 0
- Sodium (increased): Subjects with Grade 1 (Placebo → 100 mg QD): 0
- Sodium (increased): Subjects with Grade 2 (Placebo → 100 mg QD): 0
- Sodium (increased): Subjects with Grade 3 (Placebo → 100 mg QD): 0
- Sodium (increased): Subjects with Grade 4 (Placebo → 100 mg QD): 0
- Sodium (increased): Subjects with postbaseline maximum toxicity grade >0 (Placebo → 100 mg QD): 0
- Total Bilirubin (increased): Subjects with Grade 2 (Placebo → 100 mg QD): 0
- Total Bilirubin (increased): Subjects with Grade 3 (Placebo → 100 mg QD): 0
- Total Bilirubin (increased): Subjects with Grade 4 (Placebo → 100 mg QD): 0
- Triglycerides (increased): Subjects with Grade 3 (Placebo → 100 mg QD): 0
- Triglycerides (increased): Subjects with Grade 4 (Placebo → 100 mg QD): 0
